Like-named read-outs stand apart in the source and are kept apart here.

One series deals with CWR22Rv1 cells. The series is described as follows: alamarBlue cell viability, CWR22Rv1. The format is cell-based. The settings on record: Homo sapiens, CWR22Rv1, 168 h; 7 days treatment, normal hormone condition. The protocol: (§1) Cells were seeded in triplicate in 96-well plates 1 day prior to drug treatment for all assays. For viability test and IC50 assessment, the alamarBlue™ Cell Viability Reagent (Thermo Fisher Scientific) was added to cells 7 days after PROTAC treatment, followed by fluorescence detection as the manufacturer instructed. The IC50 was calculated by dose-inhibition regression. For proliferation monitoring, 2, 4, 6 and 8 days after PROTAC treatment (day 0), viable cells were detected by MTT Cell Proliferation Kit I (Sigma–Aldrich) according to the manufacturer's instructions. Cellular caspase activity was measured by Caspase-Glo 3/7 Assay System (Promega) 1 or 2 days after the drug treatment.

In series [1] the test system is LNCaP, CWR22Rv1 and VCaP cells. The experiment in a line: alamarBlue cell viability, all three cell lines. The following applies: Homo sapiens, 168 h; 7 days treatment; read-out: IC50 cell viability, range in all three cell lines. The format is cell-based. The protocol: as §1
Series [2] in a line: In vitro stability in plasma. The format is in vitro ADME. The settings on record: mouse, BALB/c mice plasma, 37 °C, read-out: Plasma stability T1/2. The protocol: The in vitro stability of the PROTAC compounds was performed in BALB/C (BALB/cAnNCrlBltw) mice plasma. The reactions were initiated by adding 10 μM PROTAC compounds to 0.5 mL of pre-warmed plasma solution. The assays were performed in Thermomixer at 37 °C. During the incubation, 20 μL samples were taken at 0, 30, 60, 120, and 240 min time points, and added to 120 μL of acetonitrile to deproteinize the plasma. After 10 min of centrifugation at 14,000 rpm, the supernatants were collected for subsequent HPLC-UV analysis (Waters 1525 Binary and 2707 Autosampler).

A short description of series [3]: Pharmacokinetic analysis in BALB/c mice. The settings on record: for bioavailability: read-out: BA (bioavailability); for clearance: read-out: plasma clearance rate. It is filed as in vivo, mouse. As for the experimental part: Six to eight-week-old male BALB/c (BALB/cAnNCrlBltw) mice weighing between 22 and 30 g were purchased from BioLASCO Taiwan Co., Ilan, Taiwan. In vivo PK analysis of the PROTAC compounds was performed with 2 mg/kg for intravenous injection (IV, n = 2), 10 mg/kg for intraperitoneal injection (IP, n = 3), and 10 or 30 mg/kg for oral (PO, n = 3) dosing route. Blood samples from the mice were collected using Microvette® CB 300 EDTA blood collection tubes by a lancet at 0.167 h (IV only), 0.5, 1, 2, 4, 7 and 24 h time points. The plasma was then subjected to LC-MS analysis to quantitate the drug concentration against calibration curves that were established with drug standards prepared in mice plasma.

The subject of another series is CWR22Rv1 xenograft. The series is described as follows: CWR22Rv1 xenograft efficacy study. It is filed as in vivo. As for the experimental part:
Immunodifficient male C.B-17 SCID mice (NOD.CB17-Prkdc^scid/NcrCrlBltw) at 4–6 weeks of age were purchased from BioLASCO Taiwan Co., Ilan, Taiwan. All mice were housed in conventional cages in the AAALAC Full Accreditation (2011) in Industrial Technology Research Institute and were allowed to acclimatize and recover from shipping-related stress for one week prior to the study. The health of the mice was monitored by daily observations. Animals were kept in rooms at temperature of 22–26 °C with 40–70% humidity, positive pressure, 60% air recirculation, ventilation rate 15–20 changes per hour, and a controlled light–dark cycle (12–12 h). The order and location of each animal cage was randomly assigned to minimize potential confounders. CWR22Rv1 cells (5 × 10^6) were suspended in 100 μL of PBS with 30% Matrigel and subcutaneously implanted into the right flank of male C.B-17 SCID mice. Tumors were measured with calipers, and tumor size was calculated as follows: tumor volume (V) = (L × S^2)/2 (L, longest diameter, mm; S, shortest diameter, mm). When mean tumor volume reached 150–200 mm^3, the mice were randomly assigned into indicated groups (n = 5–6/group) and the day of initiating treatments was assigned as day 0. In the study using intraperitoneal (IP) injection, the mice received vehicle control (NMP: Cremophor: PBS = 1:2:7 (v:v:v)), ITRI-90 (10 mg/kg, BID) or ITRI-126 (10 mg/kg, BID) for the indicated days. In the study using oral (PO) gavage, the mice received vehicle control or ITRI-90 (100 mg/kg, BID) for 21 days. Tumor size and body weight of the animals were monitored and recorded two to three times per week. Mice were sacrificed when one of the tumor reached over 1000 mm^3 in size. Tumors were collected and immediately subjected to liquid nitrogen freezing and homogenization. The homogenized tumor samples were stored at −80 °C for subsequent western blotting analysis. The drug antitumor efficacy was presented as percentages of TGI of each tested animal, calculated as follows: [1 − (final tumor volume − initial tumor volume of the treated group)/average of (final tumor volume − initial tumor volume of the vehicle group)] × 100. Body weight of each mouse was also compared to that on the first day of treatment (day 0) and expressed as a percentage of day 0 value. All data points were included for calculation and the values are presented as mean ± SEM. Statistical analysis of the differences between two drug and vehicle treated groups was determined by two-tailed Student's t test. For negative control, same procedures as described above were followed. PC3 cells (5 × 10^6) mixing with 50% matrigel were subcutaneously implanted into both flanks of 8 male C.B-17 SCID mice, followed by random assignment for oral administration of vehicle control or ITRI-90 drug (100 mg/kg, BID) treatment (n = 4/group).

The nature of series [4]: Metabolic stability in liver microsomes. It is filed as in vitro ADME. The following applies: pooled liver microsomes, pH 7.4, mouse CD-1 liver microsome 0.8 mg/mL, read-out: MLM stability T1/2. As for the experimental part:
The mouse CD-1 pooled liver microsome (Corning Product ID: 452701, Lot: 0010003) was used to test compound stability. The reaction was carried out in 100 mM, pH 7.4 phosphate buffer containing microsome (0.8 mg/mL), NADP^+ (1.3 mM), glucose-6-phosphate (3.3 mM), glucose-6-phosphate dehydrogenase (0.4 U/mL), magnesium chloride (3.3 mM) and the test article (1 μM) with 1% (v/v) final concentration of DMSO. The reaction was incubated at 37 °C with shaking. At 0, 10, 20, and 30 min time points, 20 μL of the reaction mixture was taken and quenched immediately with 120 μL acetonitrile. The quenched sample were centrifuged, and the supernatant was then analyzed by LC-MS/MS (ABI4000Q-TRAP). 1 μM warfarin and 1 μM verapamil with same reaction conditions was used as negative and positive control, respectively.

For another series, the system named is caspase 3/7. The experiment in a line: Caspase-Glo 3/7 activity. It is filed as cell-based, human. The settings on record: 5 μM LNCaP, 1 μM CWR22Rv1, two days after treatment. The protocol:
as §1

The mark [5] stands for this setting: male, BALB/c, mouse, plasma, IP, 10 mg/kg.
The mark [6] stands for this setting: male, BALB/c, mouse, plasma, PO, 30 mg/kg.
Where [7] appears, read: male, BALB/c, mouse, plasma, intravenous, 2 mg/kg.
Setting [8] is: male, BALB/c, mouse, plasma, ip, 10 mg/kg, 0-24 h.
Where [9] appears, read: male, BALB/c, mouse, plasma, ip, 10 mg/kg, IP, 10 mg/kg, read-out: Cmax.
The mark [10] stands for this setting: male, BALB/c, mouse, plasma, PO, 10 mg/kg.

As to `Cc1ncsc1-c1ccc(CNC(=O)[C@@H]2C[C@H](O)CN2C(=O)[C@@H](NC(=O)COCCCCOc2ccc(C3CCN(C4=Nn5c(nnc5C(F)(F)F)CC4)CC3)cc2)C(C)(C)C)cc1` [ITRI-90, (2S,4S)-1-((S)-3,3-dimethyl-2-(2-(4-(4-(1-(3-(trifluoromethyl)-7,8-dihydro-[1,2,4]triazolo[4,3-b]pyridazin-6-yl)piperidin-4-yl)phenoxy)butoxy)acetamido)butanoyl)-4-hydroxy-N-(4-(4-methylthiazol-5-yl)benzyl)pyrrolidine-2-carboxamide], the IC50 is 4.13 ± 1.93 µM in the series with CWR22Rv1 cells and 3 to 6 µM in series [1]. For the same molecule, in series [2], the half-life at 10 μM was greater than 4 h. The Cmax is 7056.67 ± 2594.81 ng/mL in series [3] (PO, 30 mg/kg); 3940 ± 1140 ng/mL in series [3] (setting [9]); 7060 ng/mL in series [3] (male, BALB/c, mouse, plasma, po, 30 mg/kg, PO, 30 mg/kg, read-out: Cmax). For the same molecule, in series [3] (PO, 30 mg/kg, 0-24 h), the AUC/Dose came out at 600.13 ± 263.33 h⋅kg⋅ng/mL/mg. For the same molecule, the figures for the Tmax in series [3] (setting [5]) and in series [3] (setting [6]) were 1.5 ± 0.7 h and 1.67 ± 0.58 h, respectively. In addition, the bioavailability in series [3] (setting [6]) was found to be 23%. Besides, the clearance in series [3] (setting [7]) was 6.62 mL/min/kg. Also, the AUC(0-t) in series [3] (setting [8]) is 25500 ± 13600 ng·h/mL; in series [3] (male, BALB/c, mouse, plasma, po, 30 mg/kg, 0-24 h), 18000 ng·h/mL. Also, the “toxicity monitored by animal body weight” value is “without obvious toxicities” with CWR22Rv1 xenograft (IP 10 mg/kg twice daily) and “without obvious toxicity” with CWR22Rv1 xenograft (PO 100 mg/kg twice daily, 21 days). Further, the “tumor growth inhibition (TGI)” value was found to be 76.64 ± 11.1% in the series on CWR22Rv1 xenograft (IP 10 mg/kg twice daily, day 12, SCID mice, no hormone manipulation) and 71.73 ± 6.42% with CWR22Rv1 xenograft (PO 100 mg/kg twice daily, day 21, SCID mice, no hormone ablation). The “AR-FL and AR-Vs protein levels in tumors” value with CWR22Rv1 xenograft (PO 100 mg/kg twice daily, final time point, western blot) was “reduced”. For the same molecule, the half-life at 1 μM in series [4] is greater than 0.5 h.
Regarding `Cc1ncsc1-c1ccc(CNC(=O)[C@@H]2C[C@H](O)CN2C(=O)[C@@H](NC(=O)COCCCCCCOc2ccc(C3CCN(C4=Nn5c(nnc5C(F)(F)F)CC4)CC3)cc2)C(C)(C)C)cc1` [ITRI-125, (2S,4S)-1-((S)-3,3-dimethyl-2-(2-(6-(4-(1-(3-(trifluoromethyl)-7,8-dihydro-[1,2,4]triazolo[4,3-b]pyridazin-6-yl)piperidin-4-yl)phenoxy)hexyloxy)acetamido)butanoyl)-4-hydroxy-N-(4-(4-methylthiazol-5-yl)benzyl)pyrrolidine-2-carboxamide], the IC50 is 6.92 ± 6.23 µM in the series on CWR22Rv1 cells and 3 to 6 µM in series [1]. Also, in series [2], the half-life at 10 μM was greater than 4 h. The AUC/Dose in series [3] (intravenous, 2 mg/kg) was determined as 2839.9 ± 36.7 ng·h/mL. Also, the clearance in series [3] (setting [7]) was 5.68 mL/min/kg. The half-life at 1 μM in series [4] was greater than 0.5 h.
`O=C1CCC(N2Cc3c(NC(=O)COCCCCOc4ccc(C5CCN(C6=Nn7c(nnc7C(F)(F)F)CC6)CC5)cc4)cccc3C2=O)C(=O)N1` (stereo not shown) [ITRI-126, N-(2-(2,6-dioxopiperidin-3-yl)-1-oxoisoindolin-4-yl)-2-(4-(4-(1-(3-(trifluoromethyl)-7,8-dihydro-[1,2,4]triazolo[4,3-b]pyridazin-6-yl)piperidin-4-yl)phenoxy)butoxy)acetamide]: the IC50 in the series on CWR22Rv1 cells was 0.071 ± 0.017 µM; in series [1], 0.07 to 0.4 µM. Also, in the series on caspase 3/7, the “caspase 3/7 activity at lower concentrations” value was “induced strong caspase activity two days after drug treatment”. The AUC/Dose is 234.2 ± 26.3 h⋅kg⋅ng/mL/mg in series [3] (IP, 10 mg/kg, 0-24 h) and 20.4 ± 8.6 h⋅kg⋅ng/mL/mg in series [3] (PO, 10 mg/kg, 0-24 h). Moreover, the time to peak (Tmax) was found to be 1.5 ± 0.5 h in series [3] (setting [5]) and 0.7 ± 0.2 h in series [3] (setting [10]). The bioavailability in series [3] (setting [10]) is 4.6 ± 1.9%. Besides, in series [3] (setting [7]), the clearance was 24.7 mL/min/kg. The exposure AUC(0-t) came out at 2340 ± 263 ng·h/mL in series [3] (setting [8]) and 204 ± 85.9 ng·h/mL in series [3] (male, BALB/c, mouse, plasma, po, 10 mg/kg, 0-24 h). The Cmax turned out to be 706 ± 222 ng/mL in series [3] (setting [9]) and 95.7 ± 47.1 ng/mL in series [3] (male, BALB/c, mouse, plasma, po, 10 mg/kg, PO, 10 mg/kg, read-out: Cmax). In addition, the “tumor growth inhibition (TGI)” value in the series on CWR22Rv1 xenograft (IP 10 mg/kg twice daily, day 14, SCID mice, no hormone manipulation) was 49.8 ± 11.1%. The “toxicity monitored by animal body weight” value with CWR22Rv1 xenograft (mouse, in vivo, ip, 10 mg/kg) is listed as “without obvious toxicities”.

Source of the values: publication PMC10011747, “Targeting androgen receptor and the variants by an orally bioavailable Proteolysis Targeting Chimeras compound in castration resistant prostate cancer” (eBioMedicine, 2023).
